Results: ChEMBL document CHEMBL4049382, “4-Hydroxyphenylpyruvate Dioxygenase and Its Inhibition in Plants and Animals: Small Molecules as Herbicides and Agents for the Treatment of Human Inherited Diseases” (J Med Chem, 2017)

Legend:
[1] = biological target: T1, 4-hydroxyphenylpyruvate dioxygenase (Arabidopsis thaliana) (UniProt P93836); assay: Inhibition of Arabidopsis thaliana HPPD
T1 sequence (whole entry): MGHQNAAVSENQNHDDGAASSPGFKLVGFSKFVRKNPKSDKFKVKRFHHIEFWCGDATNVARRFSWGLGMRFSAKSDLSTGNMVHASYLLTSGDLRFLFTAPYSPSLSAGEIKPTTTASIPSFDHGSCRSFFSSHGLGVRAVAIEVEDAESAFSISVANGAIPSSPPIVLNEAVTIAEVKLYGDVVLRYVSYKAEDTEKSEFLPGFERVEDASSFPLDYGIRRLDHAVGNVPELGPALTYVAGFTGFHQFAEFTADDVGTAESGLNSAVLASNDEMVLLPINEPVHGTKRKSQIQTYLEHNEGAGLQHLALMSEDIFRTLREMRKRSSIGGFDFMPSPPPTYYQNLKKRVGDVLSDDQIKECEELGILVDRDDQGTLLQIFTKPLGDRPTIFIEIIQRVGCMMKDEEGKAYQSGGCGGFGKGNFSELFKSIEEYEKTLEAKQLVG

[2] = biological target: T2, 4-hydroxyphenylpyruvate dioxygenase (Arabidopsis thaliana, UniProt P93836); assay: Inhibition of Arabidopsis thaliana HPPD expressed in Escherichia coli BL21(DE3) using HPPA as substrate after 10 mins by UV-Vis spectrometric analysis
T2 sequence (P93836 whole entry): T1 sequence (whole entry)

[3] = biological target: T2, 4-hydroxyphenylpyruvate dioxygenase; assay: Inhibition of Arabidopsis thaliana HPPD expressed in Escherichia coli JM105 using 4-HPP as substrate preincubated for 15 mins followed by substrate addition measured after 15 mins by HPLC analysis
[4] = biological target: T2, 4-hydroxyphenylpyruvate dioxygenase; assay: Inhibition of Arabidopsis thaliana HPPD expressed in Escherichia coli JM109 using HPPA as substrate after 10 mins
[5] = biological target: T2, 4-hydroxyphenylpyruvate dioxygenase; assay: Inhibition of Arabidopsis thaliana HPPD expressed in Escherichia coli JM105 using HPPA as substrate after preincubated for 15 min followed by substrate addition by HPLC analysis
[6] = biological target: T3, 4-hydroxyphenylpyruvate dioxygenase (Sus scrofa, UniProt Q02110); assay: Inhibition of pig liver HPPD using HPP as substrate after 15 mins
Fibroblast = assay: Cytotoxicity against human Fibroblast assessed as reduction in cell viability after 24 to 144 hrs by MTT assay
Homo sapiens [7] = species on record: Homo sapiens; assay: Inhibition of TAT in human Fibroblasts assessed as reduction in tyrosine level at 0.1 uM after 72 hrs by LC-MS/MS analysis relative to control
[8] = biological target: T3, 4-hydroxyphenylpyruvate dioxygenase; assay: Inhibition of pig liver HPPD using 4-hydroxyphenylpyruvic acid as substrate after 15 mins by spectrophotometric analysis
[9] = biological target: T4, 4-hydroxyphenylpyruvate dioxygenase (Daucus carota) (UniProt O23920); assay: Inhibition of carrot HPPD expressed in Escherichia coli JM105 assessed as dissociation half life using HPPA as substrate
T4 sequence (whole entry): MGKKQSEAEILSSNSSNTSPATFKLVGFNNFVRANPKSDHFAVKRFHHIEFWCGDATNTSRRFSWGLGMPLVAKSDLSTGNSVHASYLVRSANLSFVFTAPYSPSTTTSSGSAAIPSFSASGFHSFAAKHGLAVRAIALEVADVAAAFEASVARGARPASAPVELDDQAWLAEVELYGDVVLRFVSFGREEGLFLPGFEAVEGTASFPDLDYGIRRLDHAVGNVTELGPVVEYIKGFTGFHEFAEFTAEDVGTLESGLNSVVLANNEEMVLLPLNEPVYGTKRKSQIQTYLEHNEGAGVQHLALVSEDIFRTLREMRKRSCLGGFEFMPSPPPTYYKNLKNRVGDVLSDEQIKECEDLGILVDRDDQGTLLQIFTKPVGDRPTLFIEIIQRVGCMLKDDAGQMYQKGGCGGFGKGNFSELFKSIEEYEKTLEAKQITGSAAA

[10] = biological target: T5, 4-hydroxyphenylpyruvate dioxygenase (Daucus carota, UniProt O23920); assay: Inhibition of carrot HPPD expressed in Escherichia coli JM105 using HPPA as substrate
T5 sequence (O23920 whole entry): T4 sequence (whole entry)

[11] = In vitro half life of rat HPPD complex
Homo sapiens [12] = assay: Effect on tyrosine level in plasma in human at 1 mg/kg, po under uncontrolled diet (reference value: 0.076 mM); format: ADME, organism-based; details: in vivo
[13] = biological target: 4-hydroxyphenylpyruvate dioxygenase (Rattus norvegicus) (UniProt P32755); details: Wistar, 50 nM
Description: Inhibition of Wistar rat liver HPPD using 4-Hydroxyphenylpyruvate as substrate assessed as reduction in oxygen consumption at 50 nM preincubated for 3 mins followed by substrate addition measured after 30 secs

Homo sapiens [14] = assay: Effect on tyrosine level in plasma in human at 1 mg/kg, po up to 120 hrs (reference value: 0.076 mM); details: in vivo
[15] = Half life in human plasma at 1 mg/kg
Homo sapiens [16] = assay: In vivo inhibition of HPPD in human assessed dissociation half life for enzyme-compound complex in plasma; format: functional, organism-based
Rattus norvegicus [17] = assay: In vivo inhibition of Tyr hydroxylase in rat assessed as tyr concentration in plasma by colorimetric assay (reference value: 0.1 mM); format: functional
Rattus norvegicus [18] = species on record: Rattus norvegicus
Description: In vivo inhibition of HPPD in rat assessed dissociation half life for enzyme-compound complex in plasma

Rattus norvegicus [19] = assay: In vivo inhibition of HPPD activity in rat assessed as micoL of O2 consumed in liver cytosol at 0.1 to 5 mg/kg/day measured after 90 days (reference value: 91%); format: functional
Rattus norvegicus [20] = assay: In vivo inhibition of HGD activity in rat assessed as micoL of O2 consumed in liver cytosol at 5 to 100 mg/kg/day measured after 90 days relative to control; format: functional
Rattus norvegicus [21] = assay: In vivo inhibition of TAT activity in rat assessed as 4-hydroxyphenylpyruvate formed in liver cytosol at 50 to 100 mg/kg/day measured after 90 days relative to control; format: functional
Plasmodium falciparum [22] = assay: Antiparasitic activity against chloroquine-sensitive Plasmodium falciparum; format: functional
Plasmodium falciparum [23] = assay: Antiparasitic activity against chloroquine-resistant Plasmodium falciparum; format: functional
Homo sapiens [24] = assay: In vivo inhibition of HPPD in human assessed as blood tyrosine levels at 4 mg/kg measured up to 120 hrs; format: functional
[25] = Half life in human plasma at 1 mg/kg administered as solution; format: ADME, organism-based
Homo sapiens [26] = species on record: Homo sapiens; assay: Inhibition of TAT in human Fibroblasts assessed as reduction in tyrosine level at 10 uM after 72 hrs by LC-MS/MS analysis relative to control
[27] = Half life in human plasma at 1 mg/kg administered as capsule; format: ADME, organism-based; details: po

T3 sequence (Q02110 whole entry): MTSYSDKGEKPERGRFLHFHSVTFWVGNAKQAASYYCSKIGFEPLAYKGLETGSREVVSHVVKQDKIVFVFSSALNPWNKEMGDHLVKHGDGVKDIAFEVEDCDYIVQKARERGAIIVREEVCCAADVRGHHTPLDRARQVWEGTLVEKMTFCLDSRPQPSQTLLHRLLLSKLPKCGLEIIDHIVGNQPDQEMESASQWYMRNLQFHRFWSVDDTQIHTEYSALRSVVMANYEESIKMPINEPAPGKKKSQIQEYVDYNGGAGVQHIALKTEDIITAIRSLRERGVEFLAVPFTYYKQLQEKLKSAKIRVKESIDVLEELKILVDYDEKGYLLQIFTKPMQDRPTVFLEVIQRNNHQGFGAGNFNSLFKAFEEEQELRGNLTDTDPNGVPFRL
4-hydroxyphenylpyruvate dioxygenase (Rattus norvegicus), sequence (P32755 whole entry): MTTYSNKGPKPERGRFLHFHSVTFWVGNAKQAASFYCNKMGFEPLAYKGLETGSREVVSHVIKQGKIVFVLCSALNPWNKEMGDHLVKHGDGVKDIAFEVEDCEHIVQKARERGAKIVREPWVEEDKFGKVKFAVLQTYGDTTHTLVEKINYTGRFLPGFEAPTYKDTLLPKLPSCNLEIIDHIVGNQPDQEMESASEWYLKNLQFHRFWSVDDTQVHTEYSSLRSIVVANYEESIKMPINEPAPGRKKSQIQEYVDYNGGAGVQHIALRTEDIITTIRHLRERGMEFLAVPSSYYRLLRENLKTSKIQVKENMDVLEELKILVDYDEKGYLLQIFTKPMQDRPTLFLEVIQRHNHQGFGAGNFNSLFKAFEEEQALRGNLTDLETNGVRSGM

Work on `Cc1c(C(=O)c2cnn(C)c2O)ccc(S(C)(=O)=O)c1C1=NOCC1` yielded an INH [1] of 23 nM.
Work on `COc1nc2c(C)cccc2cc1C(=O)C1C(=O)CC(C)CC1=O` (stereo unspecified) yielded a Ki [2] of 0.007 to 0.009 µM.
In the case of `CCCCCCCCCC(=O)C1C(=O)C(C)(C)C(=O)C(C)(C)C1=O`, the IC50 [3] is reported as 0.019 µM.
`Cc1cccc2cc(C(=O)C3C(=O)CCCC3=O)c(C#N)nc12` showed a Ki [2] of 0.007 to 0.009 µM.
Work on `Cc1cccc2cc(C(=O)C3C(=O)CC(C)CC3=O)c(C#N)nc12` (stereo unspecified) yielded a Ki [2] of 0.007 to 0.009 µM.
`O=C1CCCC(=O)C1C(=O)COc1ccccc1Cl` gave a Ki [4] of 0.031 to 0.037 µM.
Compound `CC1(C)C(=O)C(C(=O)CCc2ccccc2)C(=O)C(C)(C)C1=O` has an IC50 [3] of 0.75 µM.
`Cc1c(C(=O)c2cn[nH]c2O)ccc(S(C)(=O)=O)c1C1=NOCC1` gave an INH [1] of 600 nM.
Work on `Cc1nc2c(C)cccc2cc1C(=O)C1C(=O)CCCC1=O` yielded a Ki [2] of 0.007 to 0.009 µM.
`O=C1CCCC(=O)C1C(=O)COc1ccc([N+](=O)[O-])cc1` gave a Ki [4] of 0.031 to 0.037 µM.
Compound `CC(=O)C1=C(O)C=C2Oc3c(C(C)=O)c(O)c(C)c(O)c3[C@@]2(C)C1=O` [(+)-USNIC ACID] has an IC50 [5] of 0.07 µM.
With `O=C1CCCC(=O)C1C(=O)COc1ccc(Cl)cc1` the Ki [4] was 0.031 to 0.037 µM.
`O=C(O)C(O)(O)C(F)c1ccccc1` (stereo unspecified) gave an IC50 [6] of 10 µM.
Compound `CC1(C)CC(=O)C(C(=O)c2ccc([N+](=O)[O-])cc2Cl)C(=O)C1` has an Activity (Fibroblast) of over 1 mM and an inhibition (Homo sapiens [7]) of 7%.
With `O=C1CCCC(=O)C1Cc1ccccc1[N+](=O)[O-]` the IC50 [8] was 126 µM.
With `CS(=O)(=O)c1cc(C(F)(F)F)ccc1C(=O)C(C#N)C(=O)C1CC1` (stereo unspecified) the T1/2 [9] was 2 h and the Kd [10] was 0.006 µM.
For `O=C1CCCC(OC(=O)C2CC2)=C1Cl`, the IC50 [8] was 0.015 µM.
With `COc1nc2c(C)cccc2cc1C(=O)C1C(=O)CCCC1=O` the Ki [2] was 0.007 to 0.009 µM.
`CCn1c(=O)n(-c2ccccc2C)c(=O)c2cc(C(=O)C3C(=O)CCCC3=O)ccc21` gave a Ki [2] of 0.005 µM.
Work on `O=C1CCCC(=O)C1C(=O)c1ccc(C(F)(F)F)cc1[N+](=O)[O-]` [NITISINONE] yielded a half-life [11] of 63 h, an Activity (Homo sapiens [12]) of 0.136 mM and an inhibition [13] of 50%. It also gave an Activity (Homo sapiens [14]) of 1.1 mM, a half-life [15] of 53 h and a T1/2 (Homo sapiens [16]) of 53 h. It also gave an Activity (Rattus norvegicus [17]) of over 2 mM and a T1/2 (Rattus norvegicus [18]) of 63 h.
With `Cc1ccccc1OCC(=O)C1C(=O)CCCC1=O` the Ki [4] was 0.031 to 0.037 µM.
With `Cc1cc(C2C(=O)C(C(=O)c3ccc(Cl)cc3)C(=O)CC2(C)C)on1` (stereo unspecified) the Activity (Fibroblast) was over 1 mM.
`O=C1CCCC(OC(=O)C2CC2)=C1Br` gave an IC50 [8] of 0.028 µM.
For `CS(=O)(=O)c1ccc(C(=O)C2C(=O)CCCC2=O)c(Cl)c1` [SULCOTRIONE], the “inhibition (INH)” value (Rattus norvegicus [19]) was 96%, the “inhibition (INH)” value (Rattus norvegicus [20]) was 29 - 46% and the “inhibition (INH)” value (Rattus norvegicus [21]) was 43 - 175%.
`Cc1c(O)c(C(=O)CCc2ccccc2)c2c(c1O)[C@@H]1C3=C(O[C@]1(C(C)C)O2)C(C)(C)C(=O)C(C)(C)C3=O` gave an IC50 (Plasmodium falciparum [22]) of 0.4 µM and an IC50 (Plasmodium falciparum [23]) of 0.3 µM.
`O=C1CCCCC1C(=O)c1ccccc1[N+](=O)[O-]` (stereo unspecified) gave an IC50 [8] of 0.7 µM.
`O=C1C[C@@H](c2ccccc2)Oc2cc(O)cc(O)c21` [PINOCEMBRIN] gave an IC50 [5] of 73 µM.
Work on `CS(=O)(=O)c1ccc(C(=O)C2C(=O)CCCC2=O)c(Cl)c1COCC(F)(F)F` [TEMBOTRIONE] yielded a Ki [4] of 0.013 µM.
`CS(=O)(=O)c1ccc(C(=O)C2C(=O)CCCC2=O)c([N+](=O)[O-])c1` [MESOTRIONE] showed an Activity (Homo sapiens [24]) of under 0.5 mM, a half-life [25] of 1 h and an inhibition (Homo sapiens [26]) of 14%. It also gave a half-life [27] of 1 h.
With `CC(C)CC(=O)C1C(=O)C(C)(C)C(=O)C(C)(C)C1=O` the IC50 [3] was 11.8 µM.
Work on `Cc1nc2c(C)cccc2cc1C(=O)C1C(=O)CC(C)CC1=O` (stereo unspecified) yielded a Ki [2] of 0.007 to 0.009 µM.
